Experimental data published in patent US20250312462A1, “PAK1 DEGRADERS AND METHODS OF USE THEREOF” (INSTITUTE FOR CANCER RESEARCH D/B/A THE RESEARCH INSTITUTE …, priority 2022, published 2025).

What was measured:
[1] = biological target: T1, Aiolos (IKZF3) (Homo sapiens, UniProt Q96SW2+Q9UKT9); test: Global multiplexed mass spectrometry proteomics in MOLT4 cells; type: cell-based; conditions: 1 μM, 5 hours
T1 construct: endogenous in cells; host or cells: MOLT4
Experimental: (§1) MOLT4 cells were treated with DMSO in biological triplicate and 1 μM BJG-05-039 for 5 hours and harvested by centrifugation. Cell lysis was performed by the addition of Urea buffer (8 M Urea, 50 mM NaCl, 50 mM 4-(2-hydroxyethyl)-1-piperazineethanesulfonic acid (EPPS) pH 8.5, Protease and Phosphatase inhibitors) followed by manual homogenization by 20 passes through a 21-gauge (1.25 in. long) needle. Lysate was clarified by centrifugation at 4° C. and protein quantified using bradford (Bio-Rad) assay. 100 μg of protein for each sample was reduced, alkylated and precipitated using methanol/chloroform as described (Donovan, et al. (2018) Elife 7: e38430). The resulting precipitated protein was resuspended in 4 M Urea, 50 mM HEPES pH 7.4, buffer for solubilization, followed by dilution to 1 M urea with the addition of 200 mM EPPS, pH 8. Proteins were digested for 12 hours at room temperature with LysC (1:50 ratio), followed by dilution to 0.5 M urea and a second digestion step was performed by addition of trypsin (1:50 ratio) for 6 hours at 37° C. Anhydrous ACN was added to each peptide sample to a final concentration of 30%, followed by addition of Tandem mass tag (TMT) reagents at a labelling ratio of 1:4 peptide:TMT label. TMT labelling occurred over a 1.5 hour incubation at room temperature followed by quenching with the addition of hydroxylamine to a final concentration of 0.3%. Each of the samples were combined using adjusted volumes and dried down in a speed vacuum followed by desalting with C18 SPE (Sep-Pak, Waters). […]
(§2) Quantification was performed using a MS3-based TMT method as described (Donovan et al. (2020) Cell 183(6):1714-1731). […]
(§3) Proteome Discoverer 2.4 (Thermo Fisher Scientific) was used for .RAW file processing and controlling peptide and protein level false discovery rates, assembling proteins from peptides, and protein quantification from peptides. […]

[2] = biological target: T2, Ikaros (IKZF1) (Homo sapiens, UniProt Q13422+Q96SW2); test: as above; type: cell-based; conditions: 1 μM, 5 hours
T2 construct: endogenous in cells; host or cells: MOLT4
Experimental: as §1, §2, §3

[3] = biological target: T3, RNF166 (Homo sapiens, UniProt Q96A37+Q96SW2); test: as above; type: cell-based; conditions: 1 μM, 5 hours
T3 construct: endogenous in cells; host or cells: MOLT4
Experimental: as §1, §2, §3

[4] = biological target: PRKD2 (Homo sapiens, UniProt Q9BZL6); test: KINOMEscan; conditions: read-out: Percent Control
Experimental: (§4) The kinase engagement assay (KINOMEscan®) was performed by DiscoverX assessing binding abilities toward a set of kinases.

[5] = biological target: IRAK3 (Homo sapiens, UniProt Q9Y616); test: KINOMEscan; conditions: read-out: Percent Control
Experimental: as §4

[6] = biological target: RIPK1 (Homo sapiens, UniProt Q13546); test: KINOMEscan; conditions: read-out: Percent Control
Experimental: as §4

[7] = biological target: CSNK2A2 (Homo sapiens, UniProt P19784); test: KINOMEscan; conditions: read-out: Percent Control
Experimental: as §4

[8] = biological target: NEK9 (Homo sapiens, UniProt Q8TD19); test: KINOMEscan; conditions: read-out: Percent Control
Experimental: as §4

[9] = biological target: TNNI3K (Homo sapiens, UniProt Q59H18); test: KINOMEscan; conditions: read-out: Percent Control
Experimental: as §4

[10] = biological target: ULK2 (Homo sapiens, UniProt Q8IYT8); test: KINOMEscan; conditions: read-out: Percent Control
Experimental: as §4

[11] = biological target: CDK11 (Homo sapiens, UniProt Q9BWU1); test: KINOMEscan; conditions: read-out: Percent Control
Experimental: as §4

[12] = biological target: CAMK1B (Homo sapiens, UniProt Q6P2M8); test: KINOMEscan; conditions: read-out: Percent Control
Experimental: as §4

[13] = biological target: ULK3 (Homo sapiens, UniProt Q6PHR2); test: KINOMEscan; conditions: read-out: Percent Control
Experimental: as §4

[14] = biological target: VRK2 (Homo sapiens, UniProt Q86Y07); test: KINOMEscan; conditions: read-out: Percent Control
Experimental: as §4

[15] = biological target: ALK (Homo sapiens, UniProt Q9UM73); test: KINOMEscan; conditions: read-out: Percent Control
Experimental: as §4

[16] = biological target: ZAK (Homo sapiens, UniProt Q9NYL2); test: KINOMEscan; conditions: read-out: Percent Control
Experimental: as §4

[17] = biological target: MAPKAPK5 (Homo sapiens, UniProt Q8IW41); test: KINOMEscan; conditions: read-out: Percent Control
Experimental: as §4

Chain of RIPK1 (Q13546 whole entry): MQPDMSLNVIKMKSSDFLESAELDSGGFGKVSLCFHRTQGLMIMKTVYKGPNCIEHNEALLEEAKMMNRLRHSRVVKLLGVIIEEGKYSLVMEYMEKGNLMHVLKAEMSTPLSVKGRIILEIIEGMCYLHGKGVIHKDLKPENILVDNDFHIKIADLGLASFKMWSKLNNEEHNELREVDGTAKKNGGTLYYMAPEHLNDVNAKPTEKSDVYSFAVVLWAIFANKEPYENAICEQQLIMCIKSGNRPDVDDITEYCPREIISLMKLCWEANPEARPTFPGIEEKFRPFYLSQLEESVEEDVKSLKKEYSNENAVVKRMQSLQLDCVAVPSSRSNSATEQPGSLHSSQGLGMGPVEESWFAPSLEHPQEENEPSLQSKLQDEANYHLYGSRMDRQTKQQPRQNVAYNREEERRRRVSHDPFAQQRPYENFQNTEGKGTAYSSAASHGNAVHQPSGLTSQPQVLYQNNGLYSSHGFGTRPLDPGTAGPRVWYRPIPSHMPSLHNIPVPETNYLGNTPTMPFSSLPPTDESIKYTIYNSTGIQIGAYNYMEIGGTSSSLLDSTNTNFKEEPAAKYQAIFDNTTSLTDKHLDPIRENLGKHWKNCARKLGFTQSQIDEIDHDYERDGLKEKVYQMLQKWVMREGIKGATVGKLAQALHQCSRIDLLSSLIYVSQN
T1 sequence (Q9UKT9 whole entry): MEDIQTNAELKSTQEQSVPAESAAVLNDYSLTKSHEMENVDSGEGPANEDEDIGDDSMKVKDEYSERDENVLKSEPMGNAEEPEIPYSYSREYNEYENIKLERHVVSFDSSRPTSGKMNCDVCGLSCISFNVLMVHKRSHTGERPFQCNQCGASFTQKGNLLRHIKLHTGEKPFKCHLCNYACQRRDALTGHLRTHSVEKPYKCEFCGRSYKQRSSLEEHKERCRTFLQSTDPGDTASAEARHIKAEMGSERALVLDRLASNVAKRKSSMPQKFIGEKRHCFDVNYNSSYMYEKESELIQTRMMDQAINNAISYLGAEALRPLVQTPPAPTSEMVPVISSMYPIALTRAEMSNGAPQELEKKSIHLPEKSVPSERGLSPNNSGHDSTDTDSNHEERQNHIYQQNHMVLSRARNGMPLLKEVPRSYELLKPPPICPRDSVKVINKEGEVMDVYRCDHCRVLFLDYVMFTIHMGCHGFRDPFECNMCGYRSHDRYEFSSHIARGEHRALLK
T1 sequence (Q96SW2 whole entry): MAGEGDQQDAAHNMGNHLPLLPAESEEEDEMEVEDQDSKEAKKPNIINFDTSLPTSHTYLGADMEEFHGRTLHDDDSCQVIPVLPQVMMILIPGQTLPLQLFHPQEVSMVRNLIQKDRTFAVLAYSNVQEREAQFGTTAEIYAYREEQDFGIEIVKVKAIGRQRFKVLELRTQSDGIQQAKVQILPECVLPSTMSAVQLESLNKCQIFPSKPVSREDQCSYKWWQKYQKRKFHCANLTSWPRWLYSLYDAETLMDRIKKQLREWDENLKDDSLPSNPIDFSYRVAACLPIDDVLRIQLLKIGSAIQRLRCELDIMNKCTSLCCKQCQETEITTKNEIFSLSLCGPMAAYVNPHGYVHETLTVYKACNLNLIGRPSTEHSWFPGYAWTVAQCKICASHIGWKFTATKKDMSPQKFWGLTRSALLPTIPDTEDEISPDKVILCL
T1 sequence (Q16531 whole entry partner): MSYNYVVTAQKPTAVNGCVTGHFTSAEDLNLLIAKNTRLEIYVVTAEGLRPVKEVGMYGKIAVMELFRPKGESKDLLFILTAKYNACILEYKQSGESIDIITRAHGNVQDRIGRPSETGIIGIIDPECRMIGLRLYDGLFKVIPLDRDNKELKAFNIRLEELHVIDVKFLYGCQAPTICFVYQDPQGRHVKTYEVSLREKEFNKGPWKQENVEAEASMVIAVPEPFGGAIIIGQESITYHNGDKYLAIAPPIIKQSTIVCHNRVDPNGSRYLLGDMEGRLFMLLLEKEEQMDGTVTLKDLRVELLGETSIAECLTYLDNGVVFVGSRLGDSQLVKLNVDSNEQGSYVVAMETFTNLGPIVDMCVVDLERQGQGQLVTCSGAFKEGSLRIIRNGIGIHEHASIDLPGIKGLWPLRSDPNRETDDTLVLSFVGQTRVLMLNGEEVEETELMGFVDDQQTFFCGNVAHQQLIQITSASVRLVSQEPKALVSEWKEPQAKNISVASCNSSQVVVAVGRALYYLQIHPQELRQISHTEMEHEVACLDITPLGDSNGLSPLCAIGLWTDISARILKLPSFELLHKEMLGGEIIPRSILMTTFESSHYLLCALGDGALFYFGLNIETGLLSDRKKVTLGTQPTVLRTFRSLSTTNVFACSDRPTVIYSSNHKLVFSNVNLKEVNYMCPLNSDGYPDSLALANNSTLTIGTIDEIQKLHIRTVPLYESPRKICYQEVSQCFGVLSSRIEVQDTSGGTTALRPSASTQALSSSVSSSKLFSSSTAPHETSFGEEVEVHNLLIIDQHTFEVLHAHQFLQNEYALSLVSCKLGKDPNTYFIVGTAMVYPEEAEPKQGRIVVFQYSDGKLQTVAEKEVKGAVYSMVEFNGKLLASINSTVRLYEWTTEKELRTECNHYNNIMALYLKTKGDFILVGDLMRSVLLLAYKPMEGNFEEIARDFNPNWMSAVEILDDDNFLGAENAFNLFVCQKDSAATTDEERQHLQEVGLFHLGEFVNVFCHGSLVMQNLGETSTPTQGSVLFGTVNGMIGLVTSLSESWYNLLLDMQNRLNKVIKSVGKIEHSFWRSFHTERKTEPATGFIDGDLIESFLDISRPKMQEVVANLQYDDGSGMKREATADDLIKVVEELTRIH
Chain of PRKD2 (Q9BZL6 whole entry): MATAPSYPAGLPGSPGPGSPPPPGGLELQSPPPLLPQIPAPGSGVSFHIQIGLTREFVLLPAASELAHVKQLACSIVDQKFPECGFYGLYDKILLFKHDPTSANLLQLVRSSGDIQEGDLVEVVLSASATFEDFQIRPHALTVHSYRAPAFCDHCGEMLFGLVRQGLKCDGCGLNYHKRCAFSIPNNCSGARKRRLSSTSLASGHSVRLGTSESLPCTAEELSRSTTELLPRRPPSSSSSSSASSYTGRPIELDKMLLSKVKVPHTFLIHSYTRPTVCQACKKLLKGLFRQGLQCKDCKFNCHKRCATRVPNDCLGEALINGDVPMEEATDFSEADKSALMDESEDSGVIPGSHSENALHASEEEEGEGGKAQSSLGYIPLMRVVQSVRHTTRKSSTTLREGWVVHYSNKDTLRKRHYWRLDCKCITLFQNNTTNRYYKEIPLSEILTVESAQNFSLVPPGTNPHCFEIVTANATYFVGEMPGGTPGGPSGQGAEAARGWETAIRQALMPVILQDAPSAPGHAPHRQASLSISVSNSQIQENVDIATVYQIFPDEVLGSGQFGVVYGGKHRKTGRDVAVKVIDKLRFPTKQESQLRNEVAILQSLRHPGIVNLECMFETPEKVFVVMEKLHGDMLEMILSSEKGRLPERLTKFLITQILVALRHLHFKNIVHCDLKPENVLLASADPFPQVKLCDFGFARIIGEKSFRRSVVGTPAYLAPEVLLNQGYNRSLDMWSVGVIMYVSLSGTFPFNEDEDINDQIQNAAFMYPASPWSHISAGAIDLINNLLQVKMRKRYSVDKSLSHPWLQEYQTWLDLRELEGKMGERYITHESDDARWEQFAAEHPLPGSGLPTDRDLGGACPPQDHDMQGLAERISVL
Chain of CSNK2A2 (P19784 whole entry): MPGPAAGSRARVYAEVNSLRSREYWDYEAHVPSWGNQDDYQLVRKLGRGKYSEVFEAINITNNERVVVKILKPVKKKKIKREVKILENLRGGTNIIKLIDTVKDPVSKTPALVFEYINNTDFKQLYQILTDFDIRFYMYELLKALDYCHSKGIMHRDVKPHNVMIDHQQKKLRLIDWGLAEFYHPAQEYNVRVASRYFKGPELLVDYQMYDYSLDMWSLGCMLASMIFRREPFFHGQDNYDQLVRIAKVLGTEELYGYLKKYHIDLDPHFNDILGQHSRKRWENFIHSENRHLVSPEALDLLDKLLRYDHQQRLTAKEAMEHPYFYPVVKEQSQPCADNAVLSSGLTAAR
Chain of ZAK (Q9NYL2 whole entry): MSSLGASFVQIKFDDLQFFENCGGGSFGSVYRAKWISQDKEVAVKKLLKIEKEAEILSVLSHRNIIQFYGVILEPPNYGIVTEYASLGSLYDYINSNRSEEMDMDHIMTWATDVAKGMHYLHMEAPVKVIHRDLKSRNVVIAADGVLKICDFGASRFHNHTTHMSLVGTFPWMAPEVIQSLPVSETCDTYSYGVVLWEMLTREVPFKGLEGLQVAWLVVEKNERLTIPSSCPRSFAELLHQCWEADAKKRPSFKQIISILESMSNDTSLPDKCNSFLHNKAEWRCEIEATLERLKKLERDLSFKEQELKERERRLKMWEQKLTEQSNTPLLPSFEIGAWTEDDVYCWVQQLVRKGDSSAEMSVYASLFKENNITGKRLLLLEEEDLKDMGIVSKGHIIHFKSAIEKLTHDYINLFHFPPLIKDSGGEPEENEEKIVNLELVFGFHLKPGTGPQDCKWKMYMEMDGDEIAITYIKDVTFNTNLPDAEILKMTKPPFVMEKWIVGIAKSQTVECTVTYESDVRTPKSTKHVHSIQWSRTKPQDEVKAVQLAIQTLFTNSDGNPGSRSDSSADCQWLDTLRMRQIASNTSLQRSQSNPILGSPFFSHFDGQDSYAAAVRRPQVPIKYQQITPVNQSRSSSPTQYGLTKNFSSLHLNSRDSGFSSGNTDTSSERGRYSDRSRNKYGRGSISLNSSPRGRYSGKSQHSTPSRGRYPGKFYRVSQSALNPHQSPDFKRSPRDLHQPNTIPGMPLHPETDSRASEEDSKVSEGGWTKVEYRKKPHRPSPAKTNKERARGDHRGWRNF

O=C1CCC(N2C(=O)c3cccc(NCCCCCCCCNC(=O)N4CC[C@H](NC5=Nc6cc(F)ccc6N(CC(F)F)c6ccc(Cl)cc65)C4)c3C2=O)C(=O)N1 (stereo partly drawn) [BJG-05-039, (3S)-3-((2-Chloro-5-(2,2-difluoroethyl)-8-fluoro-5H-dibenzo[b,e][1,4]diazepin-11-yl)amino)-N-(8-((2-(2,6-dioxopiperidin-3-yl)-1,3-dioxoisoindolin-4-yl)amino)octyl)pyrrolidine-1-carboxamide]
Change in protein abundance [1]: strongly downregulated
Change in protein abundance [2]: strongly downregulated
Change in protein abundance [3]: strongly downregulated
remaining binding at 10 µM [4]: 53%
remaining binding at 10 µM [5]: 55%
remaining binding at 10 µM [6]: 65%
remaining binding at 10 µM [7]: 78%
remaining binding at 10 µM [8]: 82%
remaining binding at 10 µM [9]: 82%
remaining binding at 10 µM [10]: 82%
remaining binding at 10 µM [11]: 85%
remaining binding at 10 µM [12]: 87%
remaining binding at 10 µM [13]: 92%
remaining binding at 10 µM [14]: 94%
remaining binding at 10 µM [15]: 97%
remaining binding at 10 µM [16]: 97%
remaining binding at 10 µM [17]: 100%
